The results in this text go back to patent US11814367B2, “Inhibitors of glycogen synthase 1 (GYS1) and methods of use thereof” (Maze Therapeutics, Inc., priority 2021, dated 2023).

The target of assay [1] is hGYS1 enzyme (recombinant hGYS1/GN1 protein) (Homo sapiens (Human), UniProt P13807). The assay is described as follows: GYS1 coupled enzyme assay (PK/LDH). Particulars: hGYS1/GN1 50 nM, UDP-Glucose 0.8 mM, G6P 1 mM; geometric mean of at least 2 runs. In kind it is biochemical.
The test system of assay [2] is hGYS1 enzyme / glycogen synthesis in HeLa cells. The assay is described as follows: GYS1 cell based assay (glycogen synthesis, Glucose-glo). Details: species or system human. As to conditions: 24 h incubation, 20 mM glucose, geometric mean of at least 2 runs. From the text:
The GYS1 cell based assay is a bioluminescent assay that quantifies the glucose resulting from glycogen digestion; the quantified glucose is an indirect measure of GYS1 glycogen synthesis. Newly synthesized glycogen is digested using Glucoamylase; the resulting glucose is quantified by using the Glucose-glo assay kit from Promega. Glucose-glo works by coupling glucose oxidation and NADH production with a bioluminescent system that is activated with NADH. Glucose is oxidized by Glucose dehydrogenase and the reaction reduces NAD+ to NADH; NADH activates Reductase which reduces a pro-luciferin Reductase Substrate to luciferin. Luciferin is detected in a luciferase reaction using Ultra-Glo rLuciferase and ATP, and the luminesce produced is proportional to the glucose in the sample. The luminescence is measured as a single point read in a plate reader.
Compounds that inhibit the hGYS1 enzyme and, subsequently, the glycogen synthesis in cells, were tested using assay ready plates (white, clear bottom 384 well plates) in a final DMSO reaction volume of 1% DMSO. Compounds in the assay ready plates were mixed with media with no additives, except for 20 mM glucose prior to cell addition. HeLa cells were starved in media with no additives, except for 1× Glutamax for 24 h. Starved HeLa cells were plated, in a 1:1 ratio to the media in the assay ready plate and incubated for 24 h at 37° C. and 5% C02. Cells were washed in 1×PBS buffer and lysed in lysis buffer containing 50% 1×PBS and 25% 0.3 N HCl of the final volume in the well or reaction volume; cells were incubated with lysis buffer for 10 minutes and quenched with the remaining 25% of the reaction volume that consisted of 450 mM Tris pH 8.0. Lysates were mixed in a 1:1 ratio with Glucoamylase in 100 mM Sodium Acetate buffer, pH 5.3; the mixture was incubated for 1 h at 37° C. The digested lysate was mixed in a 1:1 ratio with Glucose-glo detection mixture as per vendor recommendations (Luciferase detection buffer, Reductase, Reductase substrate, Glucose dehydrogenase, and NAD) in read-out plates (solid white 384-well plates) and incubated for 1 h at RT. The plates were read using a plate reader with luminescence capabilities. Each compound concentration Relative Luminescence Unit (RLU) was averaged and normalized to the average RLU of the positive and negative controls to obtain a percentage inhibition. The normalized data vs. concentration was plotted; to determine the half-maximal concentration (IC50), the Levenberg-Marquardt algorithm was used to fit a Hill equation to the dose response data.
The results are shown in Table 3 below, which reports the IC50 of each compound. Unless otherwise specified, IC50 values are reported as the geometric mean of at least 2 assay runs on separate days. As shown in the table below, the compounds of the present invention are potent inhibitors of human GYS1. Unless otherwise specified, IC50 values are reported as the geometric mean of at least two assay runs on separate days. Each run represents the average of a technical replicate, where each compound was assayed twice in the same plate. A superscript “#” symbol in Table 3 indicates results from a single assay run.

Sequence of hGYS1 enzyme (recombinant hGYS1/GN1 protein) (P13807 whole entry): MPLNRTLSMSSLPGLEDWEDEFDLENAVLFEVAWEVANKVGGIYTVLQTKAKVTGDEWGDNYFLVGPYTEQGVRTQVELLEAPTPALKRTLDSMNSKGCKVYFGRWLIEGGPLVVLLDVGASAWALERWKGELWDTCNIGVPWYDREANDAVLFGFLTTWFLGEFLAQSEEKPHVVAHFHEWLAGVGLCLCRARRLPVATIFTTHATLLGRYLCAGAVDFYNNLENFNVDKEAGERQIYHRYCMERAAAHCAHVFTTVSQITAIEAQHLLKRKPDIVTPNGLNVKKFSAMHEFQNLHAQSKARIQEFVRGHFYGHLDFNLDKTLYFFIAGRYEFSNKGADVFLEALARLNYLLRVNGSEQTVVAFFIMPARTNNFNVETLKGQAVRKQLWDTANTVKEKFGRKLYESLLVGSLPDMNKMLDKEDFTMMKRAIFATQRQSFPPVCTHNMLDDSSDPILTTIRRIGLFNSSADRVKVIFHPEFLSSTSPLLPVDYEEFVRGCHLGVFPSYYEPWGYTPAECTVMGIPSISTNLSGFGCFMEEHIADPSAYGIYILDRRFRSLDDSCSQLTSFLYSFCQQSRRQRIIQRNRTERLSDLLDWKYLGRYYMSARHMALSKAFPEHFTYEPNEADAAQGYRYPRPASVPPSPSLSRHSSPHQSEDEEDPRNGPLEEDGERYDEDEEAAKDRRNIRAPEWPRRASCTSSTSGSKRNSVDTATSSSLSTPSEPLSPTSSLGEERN
Sequence of hGYS1 enzyme (recombinant hGYS1/GN1 protein) (P46976 whole entry partner): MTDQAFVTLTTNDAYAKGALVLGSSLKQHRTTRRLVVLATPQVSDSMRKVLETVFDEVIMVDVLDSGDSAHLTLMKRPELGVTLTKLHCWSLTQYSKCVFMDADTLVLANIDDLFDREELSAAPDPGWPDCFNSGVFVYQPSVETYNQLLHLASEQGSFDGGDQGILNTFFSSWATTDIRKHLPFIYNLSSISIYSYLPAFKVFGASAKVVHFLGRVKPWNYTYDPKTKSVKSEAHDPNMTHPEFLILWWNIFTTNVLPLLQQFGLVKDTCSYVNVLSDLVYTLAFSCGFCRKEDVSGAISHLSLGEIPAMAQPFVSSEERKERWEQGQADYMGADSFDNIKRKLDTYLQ

Turning to `CC(C)c1ccc([C@H](NC(=O)[C@@H]2C[C@@H](F)CN2C(=O)Cc2cnn[nH]2)c2ccccc2)nc1F` (relative stereo) [Compound 776, (2S,4R)-4-fluoro-N-[(R*)-[6-fluoro-5-(propan-2-yl)pyridin-2-yl](phenyl)methyl]-1-[2-(1H-1,2,3-triazol-5-yl)acetyl] pyrrolidine-2-carboxamide], the half-inhibitory concentration (IC50) is 1150 nM in assay [1] and > 9010 nM in assay [2] (Homo sapiens, HeLa, 24 h). For the compound `O=C(NC(c1ccccc1)c1ccc(C2CC2)cn1)[C@@H]1C[C@@H](F)CN1C(=O)Cc1cnn[nH]1` (single isomer, unassigned) [Compound 498, (2S,4R)-1-(2-(1H-1,2,3-triazol-5-yl)acetyl)-N—((R) or (S)-(5-cyclopropylpyridin-2-yl)(phenyl)methyl)-4-fluoropyrrolidine-2-carboxamide], the IC50 in assay [1] and in assay [2] was > 10000 nM each time. With `CC(C)c1cnc(C(NC(=O)[C@@H]2C[C@@H](F)CN2C(=O)Cc2cnn[nH]2)c2ccccc2)cc1C(F)(F)F` (single isomer, unassigned) [Compound 608, (2S,4R)-4-fluoro-N-[(S) or (R)-phenyl[5-(propan-2-yl)-4-(trifluoromethyl)pyridin-2-yl]methyl]-1-[2-(1H-1,2,3-triazol-5-yl)acetyl]pyrrolidine-2-carboxamide], the half-maximal inhibitory concentration (IC50) in assay [1] is 2860 nM; in assay [2] (Homo sapiens, HeLa, 24 h), > 10000 nM. In the same order, the values of `O=C(NC(c1ccccc1)c1ccc(C2CCC2)cn1)[C@@H]1C[C@@H](F)CN1C(=O)Cc1cnn[nH]1` (single isomer, unassigned) [Compound 610, (2S,4R)-N-[(S) or (R)-(5-cyclobutylpyridin-2-yl)(phenyl)methyl]-4-fluoro-1-[2-(1H-1,2,3-triazol-5-yl)acetyl]pyrrolidine-2-carboxamide] are 107 nM and 1010 nM. On to `COc1nc(C(NC(=O)[C@@H]2C[C@@H](F)CN2C(=O)Cc2cnn[nH]2)c2ccccc2)ccc1C(C)C` (single isomer, unassigned) [Compound 612, (2S,4R)-4-fluoro-N-[(S) or (R)-[6-methoxy-5-(propan-2-yl)pyridin-2-yl] (phenyl)methyl]-1-[2-(1H-1,2,3-triazol-5-yl)acetyl]pyrrolidine-2-carboxamide], for which the half-maximal inhibitory concentration (IC50) was 2180 nM in assay [1] and > 29000 nM in assay [2] (Homo sapiens, HeLa, 24 h).

Consider `Cc1cc(C(NC(=O)[C@@H]2C[C@@H](F)CN2C(=O)CNC(=O)N(C)C)c2cccnc2N)ccc1C(C)C` (single isomer, unassigned) [Compound 622, (2S,4R)-N-[(R) or (S)-(2-aminopyridin-3-yl)[3-methyl-4-(propan-2-yl)phenyl]methyl]-1-{2-[(dimethylcarbamoyl)amino]acetyl}-4-fluoropyrrolidine-2-carboxamide], for which the concentration for half-maximal inhibition (IC50) in assay [1] is 443 nM; in assay [2] (Homo sapiens, HeLa, 24 h) it was > 10000 nM. `Cc1cc(C(NC(=O)[C@@H]2C[C@@H](F)CN2C(=O)Cc2cnn[nH]2)c2cccnc2N)ccc1C(C)C` (single isomer, unassigned) [Compound 624, (2S,4R)-N-[(R) or (S)-(2-aminopyridin-3-yl)[3-methyl-4-(propan-2-yl)phenyl]methyl]-4-fluoro-1-[2-(1H-1,2,3-triazol-5-yl)acetyl]pyrrolidine-2-carboxamide]: the IC50 came to 408 nM in assay [1] and 5790 nM in assay [2] (Homo sapiens, HeLa, 24 h). Take `COc1ncccc1C(NC(=O)[C@@H]1C[C@@H](F)CN1C(=O)Cc1cnn[nH]1)c1ccc(C2(C)CC2)c(F)c1` (single isomer, unassigned) [Compound 626, (2S,4R)-4-fluoro-N-[(R) or (S)-[3-fluoro-4-(1-methylcyclopropyl)phenyl](2-methoxypyridin-3-yl)methyl]-1-[2-(1H-1,2,3-triazol-5-yl)acetyl]pyrrolidine-2-carboxamide]: the IC50 in assay [1] was 805 nM; in assay [2] (Homo sapiens, HeLa, 24 h) it was > 30000 nM. Regarding `Cc1ncccc1C(NC(=O)[C@@H]1C[C@@H](F)CN1C(=O)Cc1cnn[nH]1)c1ccc(C2(C)CC2)c(F)c1` (single isomer, unassigned) [Compound 627, (2S,4R)-4-fluoro-N-[(R) or (S)-[3-fluoro-4-(1-methylcyclopropyl)phenyl](2-methylpyridin-3-yl)methyl]-1-[2-(1H-1,2,3-triazol-5-yl)acetyl]pyrrolidine-2-carboxamide], the half-maximal inhibitory concentration (IC50) was 1620 nM in assay [1] and 29500 nM in assay [2] (Homo sapiens, HeLa, 24 h). Compound `COc1cccc(C(NC(=O)[C@@H]2C[C@@H](F)CN2C(C)=O)c2ccc(C(C)C)c(F)n2)c1` (single isomer, unassigned) [Compound 654, (2S,4R)-1-acetyl-4-fluoro-N-[(S) or (R)-[6-fluoro-5-(propan-2-yl)pyridin-2-yl](3-methoxyphenyl)methyl]pyrrolidine-2-carboxamide] registered an IC50 in assay [2] (Homo sapiens, HeLa, 24 h) of 3290 nM. Turning to `CC(=O)N1C[C@H](F)C[C@H]1C(=O)NC(c1cccc(-c2cc(C)nn2C)c1)c1ccc(C(C)C)c(F)n1` (single isomer, unassigned) [Compound 697, (2S,4R)-1-acetyl-N-[(S) or (R)-[3-(1,3-dimethyl-1H-pyrazol-5-yl)phenyl][6-fluoro-5-(propan-2-yl)pyridin-2-yl]methyl]-4-fluoropyrrolidine-2-carboxamide], in assay [2] (Homo sapiens, HeLa, 24 h), inhibition was half-maximal at 9200 nM (IC50). Still for that read-out and setting: the same measure for `NC(=O)NCC(=O)N1C[C@H](F)C[C@H]1C(=O)N[C@@H](c1ccccc1)c1ccc(C2CC2)c(F)n1` [Compound 302, (2S,4R)-1-[2-(carbamoylamino)acetyl]-N-[(S)-(5-cyclopropyl-6-fluoropyridin-2-yl)(phenyl)methyl]-4-fluoropyrrolidine-2-carboxamide]: 1230 nM; for `O=C(N[C@@H](c1ccccc1)c1ccc(C2CC2)c(F)n1)[C@@H]1C[C@@H](F)CN1C(=O)CNC(=O)N1CCC1` [Compound 305, (2S,4R)-1-{2-[(azetidine-1-carbonyl)amino]acetyl}-N-[(S)-(5-cyclopropyl-6-fluoropyridin-2-yl)(phenyl)methyl]-4-fluoropyrrolidine-2-carboxamide]: 630 nM; for `CC(C)c1ccc([C@@H](NC(=O)[C@@H]2C[C@@H](F)CN2C(=O)CNC(=O)N(C)C)c2ccccc2)cc1F` [Compound 361, (2S,4R)-1-{2-[(dimethylcarbamoyl)amino]acetyl}-4-fluoro-N-[(S)-[3-fluoro-4-(propan-2-yl)phenyl](phenyl)methyl] pyrrolidine-2-carboxamide]: 210 nM. Regarding `O=C(N[C@H](c1ccccc1)c1ccc(C2CC2)c(F)n1)[C@@H]1C[C@@H](F)CN1C(=O)Cn1cnc2ccccc21` [Compound 716, (2S,4R)-1-[2-(1H-1,3-benzodiazol-1-yl)acetyl]-N-[(R)-(5-cyclopropyl-6-fluoropyridin-2-yl)(phenyl)methyl]-4-fluoropyrrolidine-2-carboxamide], in assay [2] (Homo sapiens, HeLa, 24 h), it took 22300 nM to reach half-maximal inhibition (IC50). In the case of `CC(C)c1ccc([C@@H](NC(=O)[C@@H]2C[C@@H](F)CN2C(=O)Cn2cc(N3CCC3)nn2)c2ccccc2)nc1F` [Compound 787, (2S,4R)-1-{2-[4-(azetidin-1-yl)-1H-1,2,3-triazol-1-yl]acetyl}-4-fluoro-N-[(S)-[6-fluoro-5-(propan-2-yl)pyridin-2-yl](phenyl)methyl] pyrrolidine-2-carboxamide], the IC50 in assay [2] (Homo sapiens, HeLa, 24 h) is 130 nM. In turn, `COc1nc(CC(=O)N2C[C@H](F)C[C@H]2C(=O)N[C@@H](c2ccccc2)c2ccc(C(C)C)c(F)n2)nn1C` [Compound 800, (2S,4R)-4-fluoro-N-[(S)-[6-fluoro-5-(propan-2-yl)pyridin-2-yl](phenyl)methyl]-1-[2-(5-methoxy-1-methyl-1H-1,2,4-triazol-3-yl)acetyl] pyrrolidine-2-carboxamide] displayed an IC50 in assay [2] (Homo sapiens, HeLa, 24 h) of 180 nM. In assay [2] (Homo sapiens, HeLa, 24 h), `CC(C)c1ccc([C@@H](NC(=O)[C@@H]2C[C@@H](F)CN2C(=O)Cc2nc(C(F)(F)F)co2)c2ccccc2)nc1F` [Compound 801, (2S,4R)-4-fluoro-N-[(S)-[6-fluoro-5-(propan-2-yl)pyridin-2-yl](phenyl)methyl]-1-{2-[4-(trifluoromethyl)-1,3-oxazol-2-yl]acetyl} pyrrolidine-2-carboxamide] registered an IC50 of 380 nM.

One may read the IC50 as the concentration at which inhibition is half-maximal.
